From patent publication US9278936B2, “Crystalline forms of 1-(3-tert-butyl-1-p-tolyl-1H-pyrazol-5-yl)-3-(5-fluoro-2-(1-(2-hydroxyethyl)-1H-indazol-5-yloxy)benzyl)urea hydrochloride” (Array BioPharma Inc., priority 2012, dated 2016)

Key:
[1] = Aqueous solubility / BCS class; type: physicochemical
[2] = Pharmacokinetics, relative bioavailability and food effect in healthy subjects following single oral doses; type: in vivo, human; conditions: by 48 hours after dosing
From the text: Formulations 1 and 2 as well as the control are summarized below.
This study design encompassed 3 parallel treatment cohorts of unique subjects evaluating the two formulations (12 subjects per cohort) and the PIC control (6 subjects) in a fasted or fed state, as shown in Table 12. A crossover food-effect assessment for the two formulations occurred with Groups 1 and 2 within Periods 1 and 2.
For each period, subjects were divided into 2 groups of equal size to evaluate any potential period effects on the food-effect assessment. Subjects fasted for a minimum of 8 hours the night before and 4 hours following dosing for the fasted assessment. Subjects consumed a slightly modified standard high-fat meal 30 minutes before and fasted for 4 hours after dosing for the fed portion of the food-effect assessment. Following a 7-day washout after the initial dose, subjects being dosed with the novel formulations returned to the clinic for the Period 2 single dose in the fasted state or following the consumption of a high-fat meal, as appropriate. Within each cohort and period, all subjects were treated on the same day. The same subjects were utilized for Cohort 1—Periods 1 and 2, and likewise for Cohort 2—Periods 1 and 2.
Both days were considered single dose for analysis purposes. Pharmacokinetic parameters calculated included the following: […]

[3] = molecular target: Tie2 protein kinase (Homo sapiens, UniProt Q02763); conditions: cited from earlier work
Sequence of Tie2 protein kinase (Q02763 23-1124): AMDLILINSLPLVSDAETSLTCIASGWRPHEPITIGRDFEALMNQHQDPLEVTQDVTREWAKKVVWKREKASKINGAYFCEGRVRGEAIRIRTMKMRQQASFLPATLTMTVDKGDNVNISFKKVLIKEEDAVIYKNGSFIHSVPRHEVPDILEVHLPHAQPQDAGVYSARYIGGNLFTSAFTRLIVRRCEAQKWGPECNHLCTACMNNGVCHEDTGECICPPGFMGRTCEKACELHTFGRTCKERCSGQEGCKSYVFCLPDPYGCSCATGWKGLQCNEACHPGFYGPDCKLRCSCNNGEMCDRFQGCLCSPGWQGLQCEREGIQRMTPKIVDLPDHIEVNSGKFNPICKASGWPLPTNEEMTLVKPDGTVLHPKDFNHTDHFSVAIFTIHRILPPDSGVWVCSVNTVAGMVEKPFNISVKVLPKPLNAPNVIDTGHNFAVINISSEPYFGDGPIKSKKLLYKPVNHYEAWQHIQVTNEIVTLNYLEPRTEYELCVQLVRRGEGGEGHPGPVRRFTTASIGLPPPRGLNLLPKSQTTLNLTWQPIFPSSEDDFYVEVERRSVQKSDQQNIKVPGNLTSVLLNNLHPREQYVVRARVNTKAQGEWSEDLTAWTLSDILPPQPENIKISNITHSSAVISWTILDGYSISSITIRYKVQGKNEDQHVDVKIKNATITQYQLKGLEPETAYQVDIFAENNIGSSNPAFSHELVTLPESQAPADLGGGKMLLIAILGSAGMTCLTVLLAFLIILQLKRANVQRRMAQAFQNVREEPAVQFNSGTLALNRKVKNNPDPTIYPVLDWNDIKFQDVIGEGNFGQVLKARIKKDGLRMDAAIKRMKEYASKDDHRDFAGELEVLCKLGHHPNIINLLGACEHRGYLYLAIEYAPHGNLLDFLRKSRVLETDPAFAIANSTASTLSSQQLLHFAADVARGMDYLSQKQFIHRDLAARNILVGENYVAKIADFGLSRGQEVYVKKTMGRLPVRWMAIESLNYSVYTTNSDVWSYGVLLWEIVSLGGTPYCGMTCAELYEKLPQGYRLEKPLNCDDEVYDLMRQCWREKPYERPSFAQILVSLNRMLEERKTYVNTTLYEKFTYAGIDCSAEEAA

[4] = system: p38 MAPK; conditions: cited from earlier work

Cc1ccc(-n2nc(C(C)(C)C)cc2NC(=O)NCc2cc(F)ccc2Oc2ccc3c(cnn3CCO)c2)cc1 [ARRY-614, 1-(3-Tert-butyl-1-p-tolyl-1H-pyrazol-5-yl)-3-(5-fluoro-2-(1-(2-hydroxyethyl)-1H-indazol-5-yloxy)benzyl)urea]
BCS class [1]: Class II
solubility ([1]; aqueous media, aqueous buffer, across the typical physiological pH range of 2-8): < 10 µg/mL
mean plasma concentrations relative to the mean peak plasma concentrations [2]: less than 10%
inhibitory activity against Tie2 protein kinase [3]: potent inhibitory activity
inhibitory activity against p38 MAPK [4]: potent inhibitory activity
